Source: ChEMBL document CHEMBL1201862, “PubChem BioAssay data set” (2004)
The source made the active and inactive calls.

What was measured:
[1] = biological target: Peroxisome proliferator-activated receptor gamma/Nuclear receptor coactivator 3 (Homo sapiens, UniProt P37231); assay: (§1) TR-FRET dose response biochemical High Throughput Screening assay for agonists of the steroid receptor coactivator 3 (SRC-3) recruitment by the peroxisome proliferator-activated receptor gamma (PPAR gamma): non-selective agonists. [Related pubchem assays: 1301 (Confirmation screen.), 1048 (Primary screen.)]; assay type: functional
Peroxisome proliferator-activated receptor gamma/Nuclear receptor coactivator 3, sequence (P37231 whole entry): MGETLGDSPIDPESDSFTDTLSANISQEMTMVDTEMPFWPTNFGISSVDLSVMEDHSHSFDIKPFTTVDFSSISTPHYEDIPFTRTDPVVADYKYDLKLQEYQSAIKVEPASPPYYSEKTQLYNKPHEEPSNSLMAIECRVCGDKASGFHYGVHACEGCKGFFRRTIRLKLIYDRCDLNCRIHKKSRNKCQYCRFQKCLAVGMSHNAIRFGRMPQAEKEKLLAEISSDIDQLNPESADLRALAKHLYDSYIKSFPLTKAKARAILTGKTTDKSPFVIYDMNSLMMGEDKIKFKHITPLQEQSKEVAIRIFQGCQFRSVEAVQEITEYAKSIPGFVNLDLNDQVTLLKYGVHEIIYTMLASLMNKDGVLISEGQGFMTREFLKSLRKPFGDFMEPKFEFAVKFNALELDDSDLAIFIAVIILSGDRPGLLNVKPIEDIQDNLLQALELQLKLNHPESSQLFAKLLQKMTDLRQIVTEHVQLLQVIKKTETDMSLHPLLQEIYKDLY
Peroxisome proliferator-activated receptor gamma/Nuclear receptor coactivator 3, sequence (Q9Y6Q9 whole entry, further chain): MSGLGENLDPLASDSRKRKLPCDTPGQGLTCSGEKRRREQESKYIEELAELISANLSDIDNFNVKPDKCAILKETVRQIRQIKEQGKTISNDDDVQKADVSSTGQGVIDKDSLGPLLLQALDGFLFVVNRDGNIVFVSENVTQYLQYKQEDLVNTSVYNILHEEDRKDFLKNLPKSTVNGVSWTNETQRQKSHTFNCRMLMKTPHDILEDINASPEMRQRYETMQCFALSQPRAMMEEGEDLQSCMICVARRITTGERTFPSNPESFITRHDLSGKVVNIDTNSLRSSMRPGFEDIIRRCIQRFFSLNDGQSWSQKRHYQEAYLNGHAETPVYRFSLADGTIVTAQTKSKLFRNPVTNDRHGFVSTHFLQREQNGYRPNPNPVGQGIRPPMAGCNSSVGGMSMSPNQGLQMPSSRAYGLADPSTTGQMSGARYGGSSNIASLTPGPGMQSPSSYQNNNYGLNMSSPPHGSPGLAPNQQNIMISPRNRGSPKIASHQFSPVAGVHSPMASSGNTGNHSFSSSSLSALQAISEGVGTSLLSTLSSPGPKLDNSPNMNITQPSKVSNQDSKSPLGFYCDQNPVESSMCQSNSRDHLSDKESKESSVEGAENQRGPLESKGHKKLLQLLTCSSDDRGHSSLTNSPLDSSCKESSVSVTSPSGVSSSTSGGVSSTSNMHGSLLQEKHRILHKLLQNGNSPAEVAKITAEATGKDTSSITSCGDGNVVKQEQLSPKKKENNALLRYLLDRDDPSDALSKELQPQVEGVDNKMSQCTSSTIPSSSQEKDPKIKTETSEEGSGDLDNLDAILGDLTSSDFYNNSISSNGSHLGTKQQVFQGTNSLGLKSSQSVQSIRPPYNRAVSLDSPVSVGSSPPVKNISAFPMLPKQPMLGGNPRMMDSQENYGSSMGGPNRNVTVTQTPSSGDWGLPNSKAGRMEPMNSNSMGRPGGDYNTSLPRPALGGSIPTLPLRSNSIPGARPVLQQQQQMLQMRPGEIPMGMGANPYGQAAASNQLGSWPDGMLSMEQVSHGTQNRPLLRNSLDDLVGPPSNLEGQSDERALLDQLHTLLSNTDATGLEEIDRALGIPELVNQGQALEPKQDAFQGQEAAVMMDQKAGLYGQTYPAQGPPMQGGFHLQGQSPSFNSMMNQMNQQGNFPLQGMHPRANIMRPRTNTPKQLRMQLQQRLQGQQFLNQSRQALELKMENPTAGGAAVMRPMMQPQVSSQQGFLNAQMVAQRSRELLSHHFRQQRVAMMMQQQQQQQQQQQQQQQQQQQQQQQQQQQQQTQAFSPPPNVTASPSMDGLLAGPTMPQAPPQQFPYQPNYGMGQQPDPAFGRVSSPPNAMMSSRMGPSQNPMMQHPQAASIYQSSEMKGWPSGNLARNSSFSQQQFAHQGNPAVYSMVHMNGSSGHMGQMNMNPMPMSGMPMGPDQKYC

[2] = biological target: Peroxisome proliferator-activated receptor gamma/Nuclear receptor coactivator 1 (Homo sapiens, UniProt P37231); assay: as §1, with “1 (SRC-1)” for “3 (SRC-3)”, “assays (depositor defined):AID1300, AID1808, AID504735, AID631]” for “assays: 1301 (Confirmation screen.), 1048 (Primary screen.)]”; assay type: protein assay
[3] = biological target: Peroxisome proliferator-activated receptor gamma/Nuclear receptor coactivator 2 (Homo sapiens, UniProt P37231); assay: TR-FRET dose response biochemical High Throughput Screening assay for agonists of the steroid receptor coactivator 2 (SRC-2) recruitment by the peroxisome proliferator-activated receptor gamma (PPAR gamma): non-selective agonists. [Related pubchem assays: 1297, 1032 ]; assay type: functional
Peroxisome proliferator-activated receptor gamma/Nuclear receptor coactivator 2, sequence (P37231 whole entry): as the sequence (P37231 whole entry) above
Peroxisome proliferator-activated receptor gamma/Nuclear receptor coactivator 2, sequence (Q15596 whole entry, further chain): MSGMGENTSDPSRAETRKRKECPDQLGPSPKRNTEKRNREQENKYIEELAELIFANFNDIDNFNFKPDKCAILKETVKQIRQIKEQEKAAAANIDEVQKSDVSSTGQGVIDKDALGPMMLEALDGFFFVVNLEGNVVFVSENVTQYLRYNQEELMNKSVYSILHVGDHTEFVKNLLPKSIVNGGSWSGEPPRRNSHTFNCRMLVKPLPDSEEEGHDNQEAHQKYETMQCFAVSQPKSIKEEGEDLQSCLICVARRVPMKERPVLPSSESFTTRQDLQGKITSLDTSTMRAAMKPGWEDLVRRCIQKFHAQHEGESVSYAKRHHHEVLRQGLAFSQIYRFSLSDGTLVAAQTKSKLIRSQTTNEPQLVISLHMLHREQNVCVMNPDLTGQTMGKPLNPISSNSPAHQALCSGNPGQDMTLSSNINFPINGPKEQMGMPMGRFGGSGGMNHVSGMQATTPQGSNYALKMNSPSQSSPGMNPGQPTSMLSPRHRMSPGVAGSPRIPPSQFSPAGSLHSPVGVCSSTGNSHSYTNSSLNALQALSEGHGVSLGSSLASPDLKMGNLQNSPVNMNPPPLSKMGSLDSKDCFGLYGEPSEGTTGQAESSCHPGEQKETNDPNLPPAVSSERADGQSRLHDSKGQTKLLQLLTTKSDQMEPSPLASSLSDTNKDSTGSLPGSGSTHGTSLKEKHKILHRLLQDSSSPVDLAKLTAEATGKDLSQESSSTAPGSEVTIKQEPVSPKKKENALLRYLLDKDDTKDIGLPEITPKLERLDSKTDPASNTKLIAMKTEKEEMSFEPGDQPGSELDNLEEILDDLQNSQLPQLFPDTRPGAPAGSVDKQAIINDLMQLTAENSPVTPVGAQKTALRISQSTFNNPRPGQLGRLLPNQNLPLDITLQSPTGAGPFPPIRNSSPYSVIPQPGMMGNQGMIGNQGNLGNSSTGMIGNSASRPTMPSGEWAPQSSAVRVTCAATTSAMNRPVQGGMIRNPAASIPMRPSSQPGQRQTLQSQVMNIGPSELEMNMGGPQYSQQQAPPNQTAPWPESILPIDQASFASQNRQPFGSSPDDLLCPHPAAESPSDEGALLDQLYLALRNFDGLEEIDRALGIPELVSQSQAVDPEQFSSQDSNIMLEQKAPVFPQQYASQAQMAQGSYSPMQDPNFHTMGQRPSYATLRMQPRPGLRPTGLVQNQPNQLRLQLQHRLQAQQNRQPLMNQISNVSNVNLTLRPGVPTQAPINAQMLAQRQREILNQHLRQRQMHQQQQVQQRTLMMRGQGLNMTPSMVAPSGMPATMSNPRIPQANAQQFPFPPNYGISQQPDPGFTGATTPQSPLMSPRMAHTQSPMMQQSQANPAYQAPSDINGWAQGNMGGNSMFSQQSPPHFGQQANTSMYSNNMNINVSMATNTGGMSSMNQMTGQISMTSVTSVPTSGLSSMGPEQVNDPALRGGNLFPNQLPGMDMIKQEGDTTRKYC

[4] = biological target: T1, Luciferin 4-monooxygenase (Photinus pyralis, UniProt P08659); assay: Counter Screen for Luciferase-based Assay Positives. [Related pubchem assays: 620, 618, 411 ]
T1 sequence (P08659 whole entry): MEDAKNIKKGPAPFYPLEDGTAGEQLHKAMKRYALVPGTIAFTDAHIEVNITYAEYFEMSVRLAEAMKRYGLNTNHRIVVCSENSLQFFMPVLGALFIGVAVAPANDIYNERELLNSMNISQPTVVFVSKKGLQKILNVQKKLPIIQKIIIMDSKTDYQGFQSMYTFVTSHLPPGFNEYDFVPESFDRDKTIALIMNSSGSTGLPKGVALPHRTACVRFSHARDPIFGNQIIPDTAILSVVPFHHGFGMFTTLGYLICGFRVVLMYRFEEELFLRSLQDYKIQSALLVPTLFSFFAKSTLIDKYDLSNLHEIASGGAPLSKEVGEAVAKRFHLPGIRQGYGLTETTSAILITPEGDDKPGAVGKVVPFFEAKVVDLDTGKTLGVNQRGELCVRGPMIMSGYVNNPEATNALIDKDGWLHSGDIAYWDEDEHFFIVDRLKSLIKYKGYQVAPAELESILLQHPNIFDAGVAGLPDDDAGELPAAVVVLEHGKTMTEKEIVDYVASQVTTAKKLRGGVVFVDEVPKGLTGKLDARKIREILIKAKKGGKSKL

[5] = test system: HT-1080; assay: cytotoxicity in HT1080 fibrosarcoma cells, cell-based, fluorescence readout (AID 620); assay type: functional; conditions: Homo sapiens
[6] = biological target: T2, Heat shock factor protein 1 (Mus musculus, UniProt P38532); assay: inhibition of MG132-induced HSE-luciferase signal, confirmation, cell-based, NIH3T3, luminescence, dose retest (AID 2382); assay type: functional;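 also: NIH3T3 fibroblasts with HSF1-driven luciferase reporter stressed by proteasome inhibitor MG132; luminescence from HSF1-driven luciferase expression after 8 hours of MG132 stress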
T2 sequence (P38532 whole entry): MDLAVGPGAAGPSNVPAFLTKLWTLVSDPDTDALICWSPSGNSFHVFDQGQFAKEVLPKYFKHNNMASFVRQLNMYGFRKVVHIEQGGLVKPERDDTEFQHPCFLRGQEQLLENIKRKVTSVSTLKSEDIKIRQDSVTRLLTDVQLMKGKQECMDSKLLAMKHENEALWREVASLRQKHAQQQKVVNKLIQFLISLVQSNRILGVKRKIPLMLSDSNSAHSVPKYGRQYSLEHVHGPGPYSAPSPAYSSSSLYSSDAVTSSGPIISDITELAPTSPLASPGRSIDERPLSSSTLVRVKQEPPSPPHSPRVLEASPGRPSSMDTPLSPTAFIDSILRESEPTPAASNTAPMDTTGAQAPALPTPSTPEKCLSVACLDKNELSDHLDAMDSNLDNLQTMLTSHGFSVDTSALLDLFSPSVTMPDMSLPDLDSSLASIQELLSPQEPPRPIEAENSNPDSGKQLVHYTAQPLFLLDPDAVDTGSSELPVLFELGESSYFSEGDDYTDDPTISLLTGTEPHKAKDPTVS

[7] = biological target: Cytochrome P450 2C19 (Homo sapiens, UniProt P33261); assay: Cytochrome panel assay with activity outcomes. Panel member name: p450-cyp2c19 Compounds with AC50 equal or less than 10 uM are considered active; assay type: functional; conditions: read-out: AC50
Cytochrome P450 2C19, sequence (P33261 whole entry): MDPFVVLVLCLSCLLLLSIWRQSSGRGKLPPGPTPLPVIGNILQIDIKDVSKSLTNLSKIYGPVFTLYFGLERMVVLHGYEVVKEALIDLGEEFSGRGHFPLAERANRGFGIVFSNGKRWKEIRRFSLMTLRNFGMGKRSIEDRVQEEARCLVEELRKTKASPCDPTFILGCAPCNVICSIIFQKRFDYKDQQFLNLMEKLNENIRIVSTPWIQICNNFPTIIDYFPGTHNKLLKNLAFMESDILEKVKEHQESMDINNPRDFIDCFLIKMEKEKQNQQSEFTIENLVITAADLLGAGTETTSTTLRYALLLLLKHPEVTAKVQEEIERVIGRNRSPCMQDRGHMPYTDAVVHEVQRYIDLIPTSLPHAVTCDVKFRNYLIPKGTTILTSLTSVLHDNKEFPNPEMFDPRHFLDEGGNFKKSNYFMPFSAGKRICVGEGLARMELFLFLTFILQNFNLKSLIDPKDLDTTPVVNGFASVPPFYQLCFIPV

[8] = A cytotoxicity screen of small molecule inhibitors of the PhoP region in Salmonella typhi identified in the primary screen. [Related pubchem assays: 1850, 1864, 1985 ]; assay type: functional
[9] = biological target: Beta-galactosidase (Escherichia coli, UniProt Q8VNN2); assay: beta-galactosidase enzyme inhibitors and activators, dose response, artefact control for CCR6 antagonist project, biochemical, E. coli enzyme, set 3 (AID 504712); assay type: functional
[10] = HepG2 cell cytotoxicity, dose response, cytotoxicity control for non-replicating M. tuberculosis project (AID 489018); assay type: functional; conditions: Mycobacterium tuberculosis
[11] = microbe, parasite or virus in culture; assay type: functional; conditions: Mycobacterium tuberculosis
[12] = cytotoxicity toward NIH3T3 fibroblasts, dose response, counter-screen, cell-based, ATP luminescence, mouse fibroblasts (AID 2010); assay type: functional;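 also: cells exposed to compound for about 90 hours before reading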
[13] = Vero E6 cell cytotoxicity, dose response, cytotoxicity control for non-replicating M. tuberculosis project, secondary assay (AID 492998); assay type: functional, VeroE6; conditions: Vero C1008
[14] = cells; assay type: functional
[15] = THP-1 cell cytotoxicity, dose response, cytotoxicity control for non-replicating M. tuberculosis project (AID 489025); assay type: functional
[16] = inhibitors of intracellular T. cruzi replication, confirmation, NIH3T3 host cells, beta-gal luminescence (AID 2044); assay type: functional, cell-based;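 also: intracellular parasites grown in NIH/3T3 mouse fibroblasts as host cells; luminescent beta-galactosidase reporter signal from transgenic T. cruzi replicating inside host cells; inhibitors lower the luminescence signal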
[17] = HIV-1 Env-mediated cell fusion inhibitors, dose response, CCR5-tropic Env (AID 2279); assay type: functional
[18] = biological target: T3, Rac GTPase-activating protein 1 (Homo sapiens, UniProt Q9H0H5); assay: MgcRacGAP GTPase-activating activity inhibitors, confirmation, biochemical, ADP Hunter fluorescence, primary and confirmatory (AID 624330); assay type: functional
T3 sequence (Q9H0H5 whole entry): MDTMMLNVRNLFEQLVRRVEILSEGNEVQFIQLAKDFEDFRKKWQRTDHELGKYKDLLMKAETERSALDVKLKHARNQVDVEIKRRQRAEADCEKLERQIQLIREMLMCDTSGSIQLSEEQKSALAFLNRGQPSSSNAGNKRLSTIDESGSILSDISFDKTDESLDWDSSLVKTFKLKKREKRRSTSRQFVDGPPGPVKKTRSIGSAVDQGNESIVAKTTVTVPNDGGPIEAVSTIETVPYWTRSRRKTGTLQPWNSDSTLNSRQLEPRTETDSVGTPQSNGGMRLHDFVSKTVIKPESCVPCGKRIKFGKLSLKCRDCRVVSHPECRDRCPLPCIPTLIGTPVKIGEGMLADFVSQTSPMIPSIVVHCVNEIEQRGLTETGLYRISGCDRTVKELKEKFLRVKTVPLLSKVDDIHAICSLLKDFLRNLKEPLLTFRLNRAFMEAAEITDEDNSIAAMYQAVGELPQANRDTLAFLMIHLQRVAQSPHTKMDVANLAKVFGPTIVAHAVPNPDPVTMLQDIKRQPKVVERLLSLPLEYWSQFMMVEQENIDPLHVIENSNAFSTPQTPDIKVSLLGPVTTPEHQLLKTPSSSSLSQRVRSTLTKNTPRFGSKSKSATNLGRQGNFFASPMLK

[19] = biological target: T1, Luciferin 4-monooxygenase; assay: firefly luciferase enzyme inhibitors, dose response, biochemical, luminescence (AID 1891)
[20] = Luminescence Cell-Based Dose Confirmation HTS to Identify Inhibitors of Platelet Dense Granule Release. [Related pubchem assays: 1663 (Primary HTS), 1678 (Summary of Project)]; assay type: functional
[21] = biological target: T4, Aminopeptidase N (Plasmodium falciparum FcB1/Columbia, UniProt O96935); assay: P. falciparum M1AAP inhibitors, biochemical, fluorogenic H-Leu-NHMec substrate, 1536-well (AID 1445); parameters: species or system Plasmodium falciparum 3D7, 3D7
T4 sequence (O96935 whole entry): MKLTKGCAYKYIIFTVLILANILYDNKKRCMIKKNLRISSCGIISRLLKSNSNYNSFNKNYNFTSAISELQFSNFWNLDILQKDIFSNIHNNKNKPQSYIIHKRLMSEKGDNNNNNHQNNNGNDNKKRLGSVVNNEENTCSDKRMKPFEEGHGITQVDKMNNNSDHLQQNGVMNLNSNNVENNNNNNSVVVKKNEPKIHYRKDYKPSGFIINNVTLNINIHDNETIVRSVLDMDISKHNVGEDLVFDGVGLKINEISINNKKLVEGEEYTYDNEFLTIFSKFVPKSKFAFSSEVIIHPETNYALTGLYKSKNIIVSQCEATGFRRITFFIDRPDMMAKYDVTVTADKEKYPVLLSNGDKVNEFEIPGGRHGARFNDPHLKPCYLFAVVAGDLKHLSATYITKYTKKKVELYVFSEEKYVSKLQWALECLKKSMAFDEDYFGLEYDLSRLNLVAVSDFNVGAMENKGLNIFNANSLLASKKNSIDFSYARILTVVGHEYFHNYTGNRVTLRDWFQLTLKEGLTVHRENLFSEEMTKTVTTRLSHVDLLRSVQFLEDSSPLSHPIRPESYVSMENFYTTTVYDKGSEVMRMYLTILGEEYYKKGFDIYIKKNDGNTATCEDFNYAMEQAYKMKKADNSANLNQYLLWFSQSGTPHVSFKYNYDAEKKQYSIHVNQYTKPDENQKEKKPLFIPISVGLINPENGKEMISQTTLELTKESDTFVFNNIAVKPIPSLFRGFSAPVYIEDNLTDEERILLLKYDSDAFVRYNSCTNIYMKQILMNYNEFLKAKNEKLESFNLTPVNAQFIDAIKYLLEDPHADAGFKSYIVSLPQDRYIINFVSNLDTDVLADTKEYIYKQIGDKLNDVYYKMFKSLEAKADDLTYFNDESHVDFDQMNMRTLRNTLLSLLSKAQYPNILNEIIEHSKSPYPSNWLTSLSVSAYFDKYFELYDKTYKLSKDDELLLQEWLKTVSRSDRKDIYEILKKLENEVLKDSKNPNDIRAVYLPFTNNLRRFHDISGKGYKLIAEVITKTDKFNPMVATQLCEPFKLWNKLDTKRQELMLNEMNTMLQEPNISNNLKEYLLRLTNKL

[22] = biological target: T5, Coagulation factor XII (Homo sapiens, UniProt P00748); assay type: functional;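 also: activated factor XIIa alpha cleaving a fluorogenic AMC peptide substrate; inhibitor potency from loss of enzyme activity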
T5 sequence (P00748 whole entry): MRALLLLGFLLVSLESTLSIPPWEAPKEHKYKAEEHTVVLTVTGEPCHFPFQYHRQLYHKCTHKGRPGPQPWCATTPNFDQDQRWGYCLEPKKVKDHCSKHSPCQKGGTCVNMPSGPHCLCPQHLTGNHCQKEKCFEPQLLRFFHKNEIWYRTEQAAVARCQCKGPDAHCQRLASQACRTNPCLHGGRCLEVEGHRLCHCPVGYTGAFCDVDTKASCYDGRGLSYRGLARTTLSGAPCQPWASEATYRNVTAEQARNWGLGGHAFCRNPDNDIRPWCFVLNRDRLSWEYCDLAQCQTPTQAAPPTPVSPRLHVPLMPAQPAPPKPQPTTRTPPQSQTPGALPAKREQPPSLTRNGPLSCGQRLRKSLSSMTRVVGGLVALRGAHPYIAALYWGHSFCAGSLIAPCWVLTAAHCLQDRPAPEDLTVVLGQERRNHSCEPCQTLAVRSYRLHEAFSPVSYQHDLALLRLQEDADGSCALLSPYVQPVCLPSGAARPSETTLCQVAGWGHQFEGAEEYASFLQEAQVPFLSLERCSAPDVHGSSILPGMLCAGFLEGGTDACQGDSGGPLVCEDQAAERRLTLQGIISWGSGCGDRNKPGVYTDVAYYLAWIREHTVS

SMILES: CCn1c(=O)cc(SCC(=O)Nc2cccc(SC)c2)c2ccccc21
- EC50 [1]: > 79.4 µM (not active)
- EC50 [2]: 69.8 µM (inactive)
- EC50 [3]: > 26.5 µM (not active)

SMILES: CCOC(=O)c1sc2nc3c(cc2c1N)COC(C(C)C)C3 (stereo not given)
- EC50 [4]: 2.84 µM (active)
- EC50 [5]: > 50 µM (not active)
- EC50 [6]: > 195 µM (not active)
- AC50 [7]: 22.4 µM (inconclusive)

SMILES: COc1cccc(N2CCN(C(S)=NCc3ccco3)CC2)c1
- EC50 [8]: > 50 µM (active)

SMILES: CN1C(=O)C(c2c(O)[nH]c3ccccc23)=NC1=S
- IC50 [9]: > 66.6 µM (inactive)

SMILES: Cc1ccc(NC(=O)COc2ccccc2CNC(C)(C)CC(C)(C)C)cc1
- CC50 [10]: 13.8 µM (active)
- CC50 [11]: 23.4 µM (active)
- EC50 [12]: 8.6 µM (active)
- CC50 [13]: 15.7 µM (active)
- IC50 [14]: 13.4 µM (active)
- CC50 [15]: 18.9 µM (active)
- EC50 [16]: 1.36 µM (active)

SMILES: COc1ccc(-c2nn(-c3ccccc3)cc2/C=C2/SC(=S)N(CCCC(=O)O)C2=O)c(C)c1
- IC50 [17]: 45 µM (active)

SMILES: O=C(Nc1ccc2nc(S)sc2c1)Nc1ccccc1F
- EC50 [8]: > 50 µM (active)

SMILES: Nc1ccc(-c2nc3ccc(N)cc3o2)cc1
- IC50 [18]: 47.8 µM (active)
- EC50 [19]: 20.1 µM (active)
- EC50 [4]: 6.3 µM (active)
- EC50 [5]: > 50 µM (not active)
- EC50 [20]: 25 µM (active)
- IC50 [21]: 26.2 µM (active)

SMILES: Nn1c(C2CCCCC2)nc2ccccc2c1=O
- IC50 [22]: > 50 µM (inactive)

SMILES: COc1cccc(NC(=O)Nc2ccccc2SC)c1
- IC50 [22]: > 50 µM (inactive)

SMILES: COc1cccc(Nc2nc(-c3sc(NC(=O)c4ccccc4)nc3C)cs2)c1
- EC50 [1]: > 79.4 µM (not active)
- EC50 [2]: 14.8 µM (inactive)
- EC50 [3]: 27.9 µM (not active)

SMILES: Cc1occc1C(=O)N/N=C/c1cccs1
- EC50 [8]: > 50 µM (active)

SMILES: Cc1cc(C)c2ccc(/C=N/O)nc2c1O
- CC50 [10]: > 20 µM (active)
- CC50 [13]: 19.5 µM (active)
- IC50 [14]: 4.25 µM (active)
- CC50 [15]: 22.9 µM (active)

SMILES: Cc1cc(Nc2ccc(C)c(C)c2)n2nc(C)nc2n1
- IC50 [22]: > 50 µM (inactive)
